By IC50 is commonly meant the concentration needed to halve the response being measured. As usually defined, the CC50 is the concentration at which the toxic effect on the cells reaches its halfway point. The term EC50 denotes the concentration giving half of the maximal effect. The term AC50 denotes the concentration giving half of the maximal activity seen.

Activity calls are given as the source filed them.

The target in test [1] is T1, Dual specificity protein phosphatase 6 (Rattus norvegicus, UniProt Q64346).
T1 sequence (Q64346 whole entry): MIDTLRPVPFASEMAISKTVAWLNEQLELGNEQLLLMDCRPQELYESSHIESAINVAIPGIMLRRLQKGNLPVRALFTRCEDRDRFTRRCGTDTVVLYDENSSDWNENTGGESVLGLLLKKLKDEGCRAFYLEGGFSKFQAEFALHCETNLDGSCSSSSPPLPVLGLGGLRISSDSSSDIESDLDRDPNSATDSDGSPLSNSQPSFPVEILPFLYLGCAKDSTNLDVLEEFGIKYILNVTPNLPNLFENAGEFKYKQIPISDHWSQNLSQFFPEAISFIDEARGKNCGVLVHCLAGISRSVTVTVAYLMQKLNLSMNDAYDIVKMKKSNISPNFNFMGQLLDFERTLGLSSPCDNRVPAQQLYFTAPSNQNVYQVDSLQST
In kind it is functional.

Test [2] addresses Glyceraldehyde-3-phosphate dehydrogenase (Homo sapiens, UniProt P04406).
The target of test [3] is T1, Dual specificity protein phosphatase 6.
Test [4] addresses T2, Tyrosine-protein phosphatase non-receptor type 7 (Homo sapiens, UniProt P35236).
T2 sequence (P35236 whole entry): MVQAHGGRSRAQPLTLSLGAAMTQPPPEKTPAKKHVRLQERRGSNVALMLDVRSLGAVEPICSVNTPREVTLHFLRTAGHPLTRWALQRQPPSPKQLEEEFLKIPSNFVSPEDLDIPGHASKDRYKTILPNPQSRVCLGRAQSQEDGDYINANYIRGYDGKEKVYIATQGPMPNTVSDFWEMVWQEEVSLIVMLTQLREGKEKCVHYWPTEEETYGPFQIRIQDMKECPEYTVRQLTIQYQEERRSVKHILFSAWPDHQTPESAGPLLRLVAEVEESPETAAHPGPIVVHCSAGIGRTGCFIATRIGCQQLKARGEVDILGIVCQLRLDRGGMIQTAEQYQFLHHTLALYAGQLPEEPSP
In kind it is functional.

Test [5] in a line: A Cell Based Secondary Assay To Explore Cytotoxicity of Compounds that Sensitize Mycobacterium Tuberculosis to Beta-Lactam Antibiotics. In kind it is functional.
A further test has as its target T3, Caspase-3 (Homo sapiens, UniProt P42574).
T3 sequence (P42574 whole entry): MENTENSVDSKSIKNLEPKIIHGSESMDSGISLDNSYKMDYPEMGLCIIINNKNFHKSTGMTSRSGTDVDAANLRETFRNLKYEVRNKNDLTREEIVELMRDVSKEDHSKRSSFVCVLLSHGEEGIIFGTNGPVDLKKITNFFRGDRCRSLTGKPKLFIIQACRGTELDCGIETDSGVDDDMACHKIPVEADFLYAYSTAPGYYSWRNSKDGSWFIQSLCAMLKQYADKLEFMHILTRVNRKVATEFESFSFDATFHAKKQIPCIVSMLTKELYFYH
The experiment in a line: procaspase-3 activation potency of dual hits, dose response, counter-screen for dual procaspase-3/7 activator project, biochemical, absorbance, PC-3 D3A mutant (AID 504328).

Test [6] can be described thus: growth suppression of PTEN-null colon cells, dose response, cell-based, HCT116 PTEN knockout (AID 1047).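 Note: HCT116 colon tumor cells with PTEN knocked out; cells exposed to compound for 60 hours before readout; potency for loss of cell viability measured by luminescence.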 In kind it is functional.
A short description of test [7]: growth suppression of beta-catenin-knockout colon cells, dose response, cell-based, HCT116, human colon tumor (AID 1045).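 Note: HCT116 colon tumor cells with beta catenin knocked out; cells exposed to compound for 60 hours.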 In kind it is functional.
For the next test, the target named is Caspase-7 (Homo sapiens, UniProt P55210). The experiment in a line: procaspase-7 activators, dose response, dual procaspase-3/-7 activator project, biochemical, absorbance, human (AID 504330).
Test [8] deals with Induced myeloid leukemia cell differentiation protein Mcl-1 (Homo sapiens, UniProt Q07820). In kind it is functional.
Sequence of Induced myeloid leukemia cell differentiation protein Mcl-1 (Q07820 whole entry, the tested form may be a part): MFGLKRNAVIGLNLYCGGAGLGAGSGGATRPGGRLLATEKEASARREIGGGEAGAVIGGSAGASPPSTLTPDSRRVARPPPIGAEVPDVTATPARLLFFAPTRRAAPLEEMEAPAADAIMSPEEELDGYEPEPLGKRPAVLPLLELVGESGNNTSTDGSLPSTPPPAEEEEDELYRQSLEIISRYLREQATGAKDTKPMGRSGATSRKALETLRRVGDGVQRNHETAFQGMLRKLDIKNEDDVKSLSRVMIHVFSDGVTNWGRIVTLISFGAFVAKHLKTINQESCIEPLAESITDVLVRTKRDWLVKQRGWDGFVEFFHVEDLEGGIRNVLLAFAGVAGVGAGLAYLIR
Test [9] addresses T4, Carboxy-terminal domain RNA polymerase II polypeptide A small phosphatase 1 (Homo sapiens, UniProt Q9GZU7).
T4 sequence (Q9GZU7 whole entry): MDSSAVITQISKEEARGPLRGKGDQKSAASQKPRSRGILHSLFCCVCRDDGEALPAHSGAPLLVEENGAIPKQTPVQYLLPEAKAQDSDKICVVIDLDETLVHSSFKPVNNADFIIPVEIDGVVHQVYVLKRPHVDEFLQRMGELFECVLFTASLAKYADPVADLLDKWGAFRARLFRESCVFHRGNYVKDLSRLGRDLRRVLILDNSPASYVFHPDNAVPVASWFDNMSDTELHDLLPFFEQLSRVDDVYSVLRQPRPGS
The experiment in a line: inhibitors of CTDSP1, concentration-response testing, biochemical assay, absorbance-based, actives from ultra-high-throughput screening (AID 540297). In kind it is functional.

Another test addresses T5, Coagulation factor XII (Homo sapiens, UniProt P00748).
T5 sequence (P00748 whole entry): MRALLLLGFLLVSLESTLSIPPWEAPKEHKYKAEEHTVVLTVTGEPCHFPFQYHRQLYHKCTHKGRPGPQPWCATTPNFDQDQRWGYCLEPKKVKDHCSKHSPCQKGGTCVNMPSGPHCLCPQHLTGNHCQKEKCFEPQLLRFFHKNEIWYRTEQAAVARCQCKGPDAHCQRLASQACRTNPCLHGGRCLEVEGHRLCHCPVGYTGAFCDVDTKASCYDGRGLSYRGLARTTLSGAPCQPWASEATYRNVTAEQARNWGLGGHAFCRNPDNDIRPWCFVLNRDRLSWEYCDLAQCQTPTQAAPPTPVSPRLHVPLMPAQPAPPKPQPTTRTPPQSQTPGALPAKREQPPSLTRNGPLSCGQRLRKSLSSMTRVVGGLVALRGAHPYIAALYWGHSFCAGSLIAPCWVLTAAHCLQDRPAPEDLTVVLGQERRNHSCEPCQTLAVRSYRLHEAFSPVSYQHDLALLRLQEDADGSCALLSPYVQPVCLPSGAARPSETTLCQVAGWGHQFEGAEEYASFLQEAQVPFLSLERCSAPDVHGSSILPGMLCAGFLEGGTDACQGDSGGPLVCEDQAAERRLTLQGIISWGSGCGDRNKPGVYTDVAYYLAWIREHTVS
In kind it is functional.

Another test addresses Bcl-2-like protein 10 (Homo sapiens, UniProt Q9HD36). The experiment in a line: displacers of TR3 peptide from Bcl-B, primary screen, selectivity assay for Bfl-1 inhibitor project, biochemical, fluorescence polarization, FITC-TR3 peptide (AID 748). For orientation: Fluorescence polarisation rises when a labelled molecule tumbles more slowly, as on binding a larger partner.

The target in test [10] is G-protein coupled receptor 35 (Homo sapiens, UniProt Q9HC97). The experiment in a line: GPR35 antagonists blocking zaprinast-driven arrestin recruitment, primary screen, imaging, U2OS, beta-arrestin-GFP, zaprinast agonist (AID 2058).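 Note: antagonist potency meaning inhibition of agonist-induced arrestin redistribution.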 The test is classed as functional. A general note: Activated receptors often draw arrestin, which recruitment assays turn into a signal.
Sequence of G-protein coupled receptor 35 (Q9HC97 whole entry): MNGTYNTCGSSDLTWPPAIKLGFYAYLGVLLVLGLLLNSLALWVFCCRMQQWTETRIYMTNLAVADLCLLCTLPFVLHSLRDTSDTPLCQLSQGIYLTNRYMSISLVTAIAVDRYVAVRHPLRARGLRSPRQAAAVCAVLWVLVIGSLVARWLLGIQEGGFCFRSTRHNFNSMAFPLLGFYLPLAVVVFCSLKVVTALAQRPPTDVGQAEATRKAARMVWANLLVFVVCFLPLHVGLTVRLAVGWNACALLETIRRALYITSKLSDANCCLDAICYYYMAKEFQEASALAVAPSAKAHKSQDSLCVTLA
The target of the next test is T6, Protein RecA (Mycobacterium tuberculosis, UniProt P9WHJ3).
T6 sequence (P9WHJ3 whole entry): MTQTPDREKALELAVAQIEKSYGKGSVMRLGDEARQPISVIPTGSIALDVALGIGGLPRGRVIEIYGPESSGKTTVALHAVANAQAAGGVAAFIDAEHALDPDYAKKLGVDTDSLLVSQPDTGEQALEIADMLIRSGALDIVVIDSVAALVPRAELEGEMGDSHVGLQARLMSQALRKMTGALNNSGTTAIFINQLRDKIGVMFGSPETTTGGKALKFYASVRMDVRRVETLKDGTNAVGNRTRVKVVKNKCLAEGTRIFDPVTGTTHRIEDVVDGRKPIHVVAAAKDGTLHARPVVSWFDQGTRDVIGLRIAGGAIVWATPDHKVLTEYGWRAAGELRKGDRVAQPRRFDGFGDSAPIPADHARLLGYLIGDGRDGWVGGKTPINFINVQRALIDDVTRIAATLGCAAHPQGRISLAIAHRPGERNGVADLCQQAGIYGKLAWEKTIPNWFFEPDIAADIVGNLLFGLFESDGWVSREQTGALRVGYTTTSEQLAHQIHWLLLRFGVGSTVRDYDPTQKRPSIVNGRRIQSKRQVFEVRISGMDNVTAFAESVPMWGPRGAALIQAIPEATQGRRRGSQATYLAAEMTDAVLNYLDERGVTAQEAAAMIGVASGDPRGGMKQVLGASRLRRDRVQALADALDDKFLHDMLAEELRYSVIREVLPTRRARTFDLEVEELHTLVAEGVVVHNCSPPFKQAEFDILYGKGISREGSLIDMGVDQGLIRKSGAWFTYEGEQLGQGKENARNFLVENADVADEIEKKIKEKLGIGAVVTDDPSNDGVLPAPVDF
The experiment in a line: Fluorescence Cell-Free Homogeneous Dose Retest to Identify Inhibitors of RecA-Intein Splicing Activity. [Related pubchem assays (depositor defined):AID2097, AID2223, AID489010, AID492950]. The test is classed as functional.

Test [11] concerns the target T7, Replicative DNA helicase DnaB (Mycobacterium tuberculosis, UniProt P9WMR3).
T7 sequence (P9WMR3 whole entry): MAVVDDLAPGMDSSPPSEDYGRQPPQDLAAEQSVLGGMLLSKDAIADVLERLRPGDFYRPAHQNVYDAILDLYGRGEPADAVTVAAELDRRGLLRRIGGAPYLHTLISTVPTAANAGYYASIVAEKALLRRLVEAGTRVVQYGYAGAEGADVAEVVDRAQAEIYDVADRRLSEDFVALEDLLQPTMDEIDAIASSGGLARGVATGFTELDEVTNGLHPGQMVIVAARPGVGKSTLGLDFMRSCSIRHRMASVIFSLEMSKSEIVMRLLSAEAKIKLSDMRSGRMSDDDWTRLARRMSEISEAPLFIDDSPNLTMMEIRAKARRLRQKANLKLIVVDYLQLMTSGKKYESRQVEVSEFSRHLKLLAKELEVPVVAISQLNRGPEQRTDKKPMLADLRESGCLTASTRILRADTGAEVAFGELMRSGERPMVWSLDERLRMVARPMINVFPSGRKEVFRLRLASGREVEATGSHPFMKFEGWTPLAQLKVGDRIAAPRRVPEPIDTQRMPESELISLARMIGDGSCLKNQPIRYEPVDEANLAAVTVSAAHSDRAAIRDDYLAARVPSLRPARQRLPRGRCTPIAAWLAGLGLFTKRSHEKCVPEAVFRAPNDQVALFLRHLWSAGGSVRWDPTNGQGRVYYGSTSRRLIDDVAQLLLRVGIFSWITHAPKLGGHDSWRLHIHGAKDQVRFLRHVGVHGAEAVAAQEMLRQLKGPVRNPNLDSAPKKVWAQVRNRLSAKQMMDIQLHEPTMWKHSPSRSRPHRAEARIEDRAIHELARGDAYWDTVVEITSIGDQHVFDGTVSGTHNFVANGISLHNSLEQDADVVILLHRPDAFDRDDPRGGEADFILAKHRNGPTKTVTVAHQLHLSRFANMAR
The experiment in a line: DnaB intein splicing inhibitors, dose response, biochemical, cell-free fluorescence (AID 449749). The test is classed as functional.

The target in test [12] is Melanin-concentrating hormone receptor 1 (Homo sapiens, UniProt Q99705). The experiment in a line: Late-stage fluorescence-based counterscreen for antagonists of the G-protein coupled receptor 7 (GPR7): cell-based dose response assay to identify antagonists of the melanin-concentrating hormone receptor 1 (MCHR1). [Related pubchem assays (depositor defined):AID1861, AID1880, AID1952, AID2148, AID2251, AID2257, AID485339]. The test is classed as functional. (In general: A counterscreen serves to expose hits that act by an unwanted route or on another target.);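 note: stimulated with 30 nM MCH peptide agonist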
Sequence of Melanin-concentrating hormone receptor 1 (Q99705 whole entry): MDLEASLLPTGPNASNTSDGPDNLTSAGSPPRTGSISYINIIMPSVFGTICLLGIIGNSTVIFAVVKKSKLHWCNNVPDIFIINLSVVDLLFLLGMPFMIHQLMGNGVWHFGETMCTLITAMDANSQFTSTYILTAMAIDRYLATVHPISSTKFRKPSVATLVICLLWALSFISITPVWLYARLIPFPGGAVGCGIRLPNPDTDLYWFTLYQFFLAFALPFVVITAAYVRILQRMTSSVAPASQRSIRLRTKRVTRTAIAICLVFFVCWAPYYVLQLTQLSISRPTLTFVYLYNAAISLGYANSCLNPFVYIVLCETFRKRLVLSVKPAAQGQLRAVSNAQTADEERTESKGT

The target of test [13] is Scavenger receptor class B member 1 (Mus musculus, UniProt Q61009). The experiment in a line: inhibitors of SR-BI mediated HDL lipid uptake, dose response, ldlA[mSR-BI] cells, fluorescence, cherry pick (AID 493194).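 Note: cellular uptake of fluorescent DiI-labeled HDL measured as cell fluorescence.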 In kind it is functional, cell-based.
Sequence of Scavenger receptor class B member 1 (Q61009 whole entry): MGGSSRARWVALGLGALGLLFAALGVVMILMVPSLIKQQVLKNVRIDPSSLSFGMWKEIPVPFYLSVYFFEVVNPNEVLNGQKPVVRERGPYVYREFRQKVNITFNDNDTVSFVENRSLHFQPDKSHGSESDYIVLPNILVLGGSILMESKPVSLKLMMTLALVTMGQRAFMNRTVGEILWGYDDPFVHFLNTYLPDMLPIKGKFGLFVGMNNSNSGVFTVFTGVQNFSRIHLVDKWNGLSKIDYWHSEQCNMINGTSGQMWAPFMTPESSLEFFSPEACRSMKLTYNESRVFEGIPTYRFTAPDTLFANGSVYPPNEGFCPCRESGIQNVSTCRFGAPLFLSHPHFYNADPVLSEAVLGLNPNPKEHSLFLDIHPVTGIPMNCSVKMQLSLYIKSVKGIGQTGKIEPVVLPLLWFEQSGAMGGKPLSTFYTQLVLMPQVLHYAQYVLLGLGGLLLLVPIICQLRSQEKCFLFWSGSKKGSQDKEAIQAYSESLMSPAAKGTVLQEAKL
The next test relates to Trypanosoma cruzi. The experiment in a line: growth inhibition of intracellular Trypanosoma cruzi, dose response, cell-based, plate reader, dry powder, set 3 (AID 493197). In kind it is functional.
Test [14] deals with T8, Eukaryotic translation initiation factor 2-alpha kinase 3 (Homo sapiens, UniProt Q9NZJ5). The experiment in a line: Dose response cell-based high-throughput screening assay to measure PERK inhibition. [Related pubchem assays: 1416 ]. In kind it is functional.
T8 sequence (Q9NZJ5 whole entry): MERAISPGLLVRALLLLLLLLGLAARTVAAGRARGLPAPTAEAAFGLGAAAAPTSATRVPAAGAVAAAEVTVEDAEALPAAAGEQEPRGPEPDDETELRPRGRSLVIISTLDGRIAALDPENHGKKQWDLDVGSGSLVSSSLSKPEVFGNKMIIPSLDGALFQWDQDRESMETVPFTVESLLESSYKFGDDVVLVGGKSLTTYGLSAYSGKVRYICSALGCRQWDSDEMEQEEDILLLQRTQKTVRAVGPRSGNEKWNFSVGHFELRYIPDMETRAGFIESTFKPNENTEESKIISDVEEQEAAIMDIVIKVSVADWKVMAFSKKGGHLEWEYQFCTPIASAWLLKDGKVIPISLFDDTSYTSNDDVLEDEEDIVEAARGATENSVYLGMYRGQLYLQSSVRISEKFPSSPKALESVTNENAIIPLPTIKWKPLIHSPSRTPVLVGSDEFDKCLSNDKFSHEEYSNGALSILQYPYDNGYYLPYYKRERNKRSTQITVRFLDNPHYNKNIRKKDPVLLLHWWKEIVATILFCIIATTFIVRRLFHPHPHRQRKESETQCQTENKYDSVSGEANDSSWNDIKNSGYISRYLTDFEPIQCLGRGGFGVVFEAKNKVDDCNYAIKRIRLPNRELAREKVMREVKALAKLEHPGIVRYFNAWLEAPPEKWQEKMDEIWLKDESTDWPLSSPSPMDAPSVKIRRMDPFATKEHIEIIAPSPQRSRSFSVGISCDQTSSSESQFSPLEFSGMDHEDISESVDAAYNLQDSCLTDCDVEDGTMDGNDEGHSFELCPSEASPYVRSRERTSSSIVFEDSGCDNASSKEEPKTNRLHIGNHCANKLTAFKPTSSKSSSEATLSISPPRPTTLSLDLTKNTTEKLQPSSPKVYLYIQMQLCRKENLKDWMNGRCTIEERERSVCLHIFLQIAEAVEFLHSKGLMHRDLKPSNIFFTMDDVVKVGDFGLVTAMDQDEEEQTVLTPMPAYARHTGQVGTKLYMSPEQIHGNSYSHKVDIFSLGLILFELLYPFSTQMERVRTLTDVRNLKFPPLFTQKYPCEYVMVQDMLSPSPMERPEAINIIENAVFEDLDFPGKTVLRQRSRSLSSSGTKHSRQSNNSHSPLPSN
In test [15] the target is T8, Eukaryotic translation initiation factor 2-alpha kinase 3. The experiment in a line: Counterscreen assay for PERK inhibitors: Dose response cell-based high throughput screening assay to measure inhibition of PERK at 6 hours. [Related pubchem assays: 1522, 1416 ]. The test is classed as functional.

Sequence of Glyceraldehyde-3-phosphate dehydrogenase (P04406 whole entry): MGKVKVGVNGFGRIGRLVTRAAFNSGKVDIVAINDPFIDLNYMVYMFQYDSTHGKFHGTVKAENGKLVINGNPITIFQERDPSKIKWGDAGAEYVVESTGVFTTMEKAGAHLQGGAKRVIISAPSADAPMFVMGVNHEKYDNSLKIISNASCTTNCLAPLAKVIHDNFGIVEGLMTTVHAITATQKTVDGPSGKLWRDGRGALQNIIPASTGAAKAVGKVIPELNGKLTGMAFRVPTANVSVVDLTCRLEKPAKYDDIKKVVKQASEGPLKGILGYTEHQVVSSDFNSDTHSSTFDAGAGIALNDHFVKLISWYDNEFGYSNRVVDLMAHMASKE
Sequence of Bcl-2-like protein 10 (Q9HD36 whole entry): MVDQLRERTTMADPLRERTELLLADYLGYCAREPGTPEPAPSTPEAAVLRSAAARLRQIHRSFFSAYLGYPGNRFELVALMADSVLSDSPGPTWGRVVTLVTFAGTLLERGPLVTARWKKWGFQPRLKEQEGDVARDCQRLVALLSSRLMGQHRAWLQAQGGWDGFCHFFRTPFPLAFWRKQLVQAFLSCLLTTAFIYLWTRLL

`Cc1ccc(CC(=O)Nc2cc(C)on2)cc1`: the IC50 in [1] was > 100 µM (inactive); in test [2], 93.8 µM (active); in test [3], > 100 µM (inactive); in [4] it was > 100 µM (not active).

`O=c1c(O)c(-c2ccc3c(c2)OCO3)oc2ccccc12`: in [5], the CC50 was > 40 µM (active). Also, the EC50 is > 85.3 µM (inactive) at Caspase-3, 41.7 µM (active) in test [6], 23.1 µM (active) in test [7] and > 85.3 µM (inactive) on Caspase-7.

For `O=C(NCc1ccco1)c1c2c(nc3ccccc13)CCC2`, the IC50 was 4.33 µM (active) in test [8], 5.65 µM (active) in test [9], > 50 µM (inactive) at Coagulation factor XII and 16.4 µM (active) at Bcl-2-like protein 10.

On to `O=C(/C=C/c1ccco1)c1ccc(NC(=O)C23CC4CC(CC(C4)C2)C3)cc1`, for which the IC50 in [10] is 4.96 µM (active). Moreover, the EC50 at Protein RecA was 55.5 µM (active). Besides, the AC50 in [11] is > 380 µM (inactive).

Take `COc1ccc(Oc2c(C)cnn(-c3ccc(C(C)C)cc3)c2=O)cc1`: the IC50 in test [12] is 9.8 µM (active).

For the compound `CCOC(=O)N1CCN(C(=O)C2CCN(C(=O)Nc3ccccc3)CC2)CC1`, in test [13], the half-maximal activity concentration (AC50) was 136 µM (active).

`COc1ccc(C(C)NC(=O)C2CCN(CCCc3ccccc3)CC2)cc1OC` (stereo unspecified): in the test on Trypanosoma cruzi, the AC50 was 66.3 µM (active).

As for `O=C(CCc1ccccc1)NCC(=O)N/N=C/c1ccc(O)cc1O`, the EC50 in [14] and in test [15] was > 55.7 µM (not active) each time.

The values are drawn from ChEMBL document CHEMBL1201862, “PubChem BioAssay data set” (2004).
